The nature of test [1]: Inhibition of PGPH activity of 20S proteasome in human K562 cells using Z-nLPnLDaminoluciferin as substrate after 2 hrs by luminescence assay.
Test [2] can be described thus: Inhibition of trypsin-like activity of 20S proteasome in human K562 cells using Z-LRRaminoluciferin as substrate after 2 hrs by luminescence assay.

Each structure is given as a SMILES string.

Consider `CC(C)C[C@H](NC(=O)[C@H](Cc1ccccc1)NC(=O)N1C/C(=C\c2ccc(F)cc2)C(=O)/C(=C/c2ccc(F)cc2)C1)B(O)O`, for which the IC50 in test [1] and in test [2] was greater than 100 µM each time.

(Values after BindingDB's records for doi:10.1016/j.bmcl.2018.06.004 (Peking University, 2018).)
